Test results: patent US20090291964A1, “Potentiators of Antibacterial Activity” (priority 2003, published 2009)

Legend:
Type in all cases: cell-based
B. subtilis = experiment: MIC of EtBr in presence and absence of EPI; conditions: B. subtilis wild type, EPI up to 100 μg/ml, data not shown
Description: (§1) EtBr is a general substrate for many different efflux pumps in bacteria. Markham et al., “Multiple Novel Inhibitors of the NorA Multidrug Transporter of Staphylococcus aureus”, Antimicrob. Agents Chemother. 43:2404-2408 (1999). Since EtBr is a non-specific DNA intercalator, the only known mechanism of resistance to EtBr is via efflux. Markham et al., “Multiple Novel Inhibitors of the NorA Multidrug Transporter of Staphylococcus aureus”, Antimicrob. Agents Chemother. 43:2404-2408 (1999).

[1] = test system: wild type gram negative organisms (E. coli, P. aeruginosa, and H. influenzae); experiment: MIC of EtBr in presence and absence of EPI; conditions: all wild type gram-negative organisms, compared with gram-positive
Description: as §1

[2] = test system: permeability mutant strains of E. coli; experiment: MIC of EtBr in presence and absence of EPI
Description: as §1

[3] = test system: E. faecalis clinical isolates; experiment: MIC90 studies: fluoroquinolone susceptibility of clinical isolate panel with EPI; conditions: EPI at 50 μg/ml
Description: (§2) Susceptibility studies with large panels of resistant clinical isolates were performed at Focus Technologies, Herndon, Va. according to NCCLS protocols (National Committee for Clinical Laboratory Standards, supra).
(§3) To be useful in combination therapy, an EPI needs to substantially reduce the MIC of an antibiotic to within the range of clinical susceptibility. Because many different resistance mechanisms are often present in clinical isolates, including the likelihood of multiple target-based mutations in addition to efflux mutations, the barrier to antibiotic efficacy is much greater. […] Oxacillin and vancomycin MICs were also determined to identify which isolates were methicillin-resistant (S. aureus) and vancomycin-resistant (E. faecalis).

[4] = test system: S. aureus clinical isolates; experiment: as above; conditions: EPI at 50 μg/ml
Description: as §2, §3

[5] = E. faecalis clinical isolate 10
[6] = E. faecalis clinical isolate 11
[7] = E. faecalis clinical isolate 12
[8] = E. faecalis clinical isolate 13
[9] = E. faecalis clinical isolate 14
[10] = E. faecalis clinical isolate 15
[11] = E. faecalis clinical isolate 16
[12] = E. faecalis clinical isolate 17
[13] = E. faecalis clinical isolate 18
[14] = E. faecalis clinical isolate 19
[15] = E. faecalis clinical isolate 20
[16] = E. faecalis clinical isolate 21
[17] = E. faecalis clinical isolate 22
[18] = E. faecalis clinical isolate 23
[19] = E. faecalis clinical isolate 24
[20] = E. faecalis clinical isolate 25
[21] = E. faecalis clinical isolate 26

COc1cc(C(=O)C(=O)N(C)[C@@H](Cc2ccc(Cl)cc2)C(=O)N(Cc2ccccc2)C(CCc2ccncc2)CCc2ccncc2)cc(OC)c1OC [C-9, (S)—N-Benzyl-2-(methyl-(2-oxo-2-(3,4,5-trimethoxyphenyl)acetyl)amino)-3-(4-chloro-phenyl)-N-(3-pyridin-4-yl-1-(2-pyridin-4-yl-ethyl)propyl)propionamide]
reduction of the MIC of EtBr (B. subtilis): 8 fold | activity against efflux of EtBr [1]: much less active | efflux inhibitory activity [2]: some efflux inhibitory activity was observed | Ciprofloxacin MIC with EPI ([3]; E. faecalis clinical isolate 1): 1 µg/mL | Norfloxacin MIC with EPI ([3]; E. faecalis clinical isolate 1): 2 µg/mL | Ciprofloxacin MIC with EPI ([3]; E. faecalis clinical isolate 2): 1 µg/mL | Norfloxacin MIC with EPI ([3]; E. faecalis clinical isolate 2): 2 µg/mL | Ciprofloxacin MIC with EPI ([3]; E. faecalis clinical isolate 3): 64 µg/mL | Norfloxacin MIC with EPI ([3]; E. faecalis clinical isolate 3): 128 µg/mL | Ciprofloxacin MIC with EPI ([3]; E. faecalis clinical isolate 4): 64 µg/mL | Norfloxacin MIC with EPI ([3]; E. faecalis clinical isolate 4): 128 µg/mL | Ciprofloxacin MIC with EPI ([3]; E. faecalis clinical isolate 5): 64 µg/mL | Norfloxacin MIC with EPI ([3]; E. faecalis clinical isolate 5): 64 µg/mL | Ciprofloxacin MIC with EPI ([3]; E. faecalis clinical isolate 6): 1 µg/mL | Norfloxacin MIC with EPI ([3]; E. faecalis clinical isolate 6): 8 µg/mL | Ciprofloxacin MIC with EPI ([3]; E. faecalis clinical isolate 7): 1 µg/mL | Norfloxacin MIC with EPI ([3]; E. faecalis clinical isolate 7): 2 µg/mL | Ciprofloxacin MIC with EPI ([3]; E. faecalis clinical isolate 8): 32 µg/mL | Norfloxacin MIC with EPI ([3]; E. faecalis clinical isolate 8): 128 µg/mL | Ciprofloxacin MIC with EPI ([3]; E. faecalis clinical isolate 9): 1 µg/mL | Norfloxacin MIC with EPI ([3]; E. faecalis clinical isolate 9): 2 µg/mL | Ciprofloxacin MIC with EPI [3, 5]: 64 µg/mL | Norfloxacin MIC with EPI [3, 5]: 64 µg/mL | Ciprofloxacin MIC with EPI [3, 6]: 32 µg/mL | Norfloxacin MIC with EPI [3, 6]: 64 µg/mL | Ciprofloxacin MIC with EPI [3, 7]: 1 µg/mL | Norfloxacin MIC with EPI [3, 7]: 2 µg/mL | Ciprofloxacin MIC with EPI [3, 8]: 0.5 µg/mL | Norfloxacin MIC with EPI [3, 8]: 2 µg/mL | Ciprofloxacin MIC with EPI [3, 9]: 0.5 µg/mL | Norfloxacin MIC with EPI [3, 9]: 2 µg/mL | Ciprofloxacin MIC with EPI [3, 10]: 2 µg/mL | Norfloxacin MIC with EPI [3, 10]: 4 µg/mL | Ciprofloxacin MIC with EPI [3, 11]: 1 µg/mL | Norfloxacin MIC with EPI [3, 11]: 4 µg/mL | Ciprofloxacin MIC with EPI [3, 12]: 1 µg/mL | Norfloxacin MIC with EPI [3, 12]: 2 µg/mL | Ciprofloxacin MIC with EPI [3, 13]: 64 µg/mL | Norfloxacin MIC with EPI [3, 13]: 128 µg/mL | Ciprofloxacin MIC with EPI [3, 14]: 1 µg/mL | Norfloxacin MIC with EPI [3, 14]: 4 µg/mL | Ciprofloxacin MIC with EPI [3, 15]: 1 µg/mL | Norfloxacin MIC with EPI [3, 15]: 2 µg/mL | Ciprofloxacin MIC with EPI [3, 16]: 1 µg/mL | Norfloxacin MIC with EPI [3, 16]: 4 µg/mL | Ciprofloxacin MIC with EPI [3, 17]: 64 µg/mL | Norfloxacin MIC with EPI [3, 17]: 128 µg/mL | Ciprofloxacin MIC with EPI [3, 18]: 32 µg/mL | Norfloxacin MIC with EPI [3, 18]: 64 µg/mL | Ciprofloxacin MIC with EPI [3, 19]: 32 µg/mL | Norfloxacin MIC with EPI [3, 19]: 64 µg/mL | Ciprofloxacin MIC with EPI [3, 20]: 64 µg/mL | Norfloxacin MIC with EPI [3, 20]: 128 µg/mL | Ciprofloxacin MIC with EPI [3, 21]: 64 µg/mL | Norfloxacin MIC with EPI [3, 21]: 128 µg/mL | trend in the reduction of MICs for ciprofloxacin and norfloxacin ([3]; E. faecalis isolates, Table 5B): less apparent | decrease in MIC of ciprofloxacin and norfloxacin ([4]; S. aureus isolates): no significant (>2-fold) decrease in MIC | Ciprofloxacin MIC with EPI ([4]; S. aureus clinical isolate 1): 1 µg/mL | Norfloxacin MIC with EPI ([4]; S. aureus clinical isolate 1): 8 µg/mL | Ciprofloxacin MIC with EPI ([4]; S. aureus clinical isolate 2): 0.5 µg/mL | Norfloxacin MIC with EPI ([4]; S. aureus clinical isolate 2): 1 µg/mL | Ciprofloxacin MIC with EPI ([4]; S. aureus clinical isolate 3): 1 µg/mL | Norfloxacin MIC with EPI ([4]; S. aureus clinical isolate 3): 4 µg/mL | Ciprofloxacin MIC with EPI ([4]; S. aureus clinical isolate 4): 64 µg/mL | Norfloxacin MIC with EPI ([4]; S. aureus clinical isolate 4): 128 µg/mL | Ciprofloxacin MIC with EPI ([4]; S. aureus clinical isolate 5): 1 µg/mL | Norfloxacin MIC with EPI ([4]; S. aureus clinical isolate 5): 2 µg/mL | Ciprofloxacin MIC with EPI ([4]; S. aureus clinical isolate 6): 32 µg/mL | Norfloxacin MIC with EPI ([4]; S. aureus clinical isolate 6): 128 µg/mL | Ciprofloxacin MIC with EPI ([4]; S. aureus clinical isolate 7): 0.5 µg/mL | Norfloxacin MIC with EPI ([4]; S. aureus clinical isolate 7): 2 µg/mL | Ciprofloxacin MIC with EPI ([4]; S. aureus clinical isolate 8): 1 µg/mL | Norfloxacin MIC with EPI ([4]; S. aureus clinical isolate 8): 4 µg/mL | Ciprofloxacin MIC with EPI ([4]; S. aureus clinical isolate 9): 1 µg/mL | Norfloxacin MIC with EPI ([4]; S. aureus clinical isolate 9): 4 µg/mL | Ciprofloxacin MIC with EPI ([4]; S. aureus clinical isolate 10): 16 µg/mL | Norfloxacin MIC with EPI ([4]; S. aureus clinical isolate 10): 64 µg/mL | Ciprofloxacin MIC with EPI ([4]; S. aureus clinical isolate 11): 32 µg/mL | Norfloxacin MIC with EPI ([4]; S. aureus clinical isolate 11): 64 µg/mL | Ciprofloxacin MIC with EPI ([4]; S. aureus clinical isolate 12): 0.25 µg/mL | Norfloxacin MIC with EPI ([4]; S. aureus clinical isolate 12): 1 µg/mL | Ciprofloxacin MIC with EPI ([4]; S. aureus clinical isolate 13): 64 µg/mL | Norfloxacin MIC with EPI ([4]; S. aureus clinical isolate 13): 128 µg/mL | Ciprofloxacin MIC with EPI ([4]; S. aureus clinical isolate 14): 64 µg/mL | Norfloxacin MIC with EPI ([4]; S. aureus clinical isolate 14): 128 µg/mL | Ciprofloxacin MIC with EPI ([4]; S. aureus clinical isolate 15): >64 µg/mL | Norfloxacin MIC with EPI ([4]; S. aureus clinical isolate 15): 256 µg/mL
